Data reported in patent publication US10327447B2, “Phosphonate functional antimicrobial coatings for metal surfaces” (NANO SAFE COATINGS INCORPORATED, priority 2013, dated 2019).

Columns and labels:
Staphylococcus aureus [1] = assay: Minimum inhibitory concentration determination; format: cell-based
Text: Test organisms included gram-positive and gram-negative bacterial strains: Staphylococcus aureus, Listeria monocytogenes, Salmonella interiditis, and Escherichia coli.

Escherichia coli [2] = assay: Minimum inhibitory concentration determination; format: cell-based; conditions: 1% stock solution in H2O, stabilized or no stabilizer
Experimental: (§1) Solutions of phosphonate antimicrobials (0.01 g/mL or 1%) were dissolved in H2O or ethanol, inoculated with the test organism and serially diluted from 10^−1-10^−3, representing a dilution range from 0.01 g/mL to 0.00001 g/mL, followed by plate counts to determine the minimum inhibitory concentration (MIC) values. Test organisms included gram-positive and gram-negative bacterial strains: Staphylococcus aureus, Listeria monocytogenes, Salmonella interiditis, and Escherichia coli.
(§2) Sample 1 was a 1% solution of compound 3; sample 2 was 1% solution of the sodium salt of compound 3; sample 3 was a 1% solution of compound 3 prepared by HCl dealkylation of N-(3-diisopropoxyphosphorylpropyl)-N,N-dimethyloctadecan-1-ammonium bromide.

Listeria monocytogenes [3] = assay: Minimum inhibitory concentration determination; format: cell-based; conditions: 1% stock solution in H2O, stabilized or no stabilizer
Experimental: as §1, §2

Salmonella interiditis = assay: Minimum inhibitory concentration determination; format: cell-based; conditions: 1% stock solution in H2O, stabilized or no stabilizer
Experimental: as §1, §2

Escherichia coli [4] = assay: Contact killing on treated stainless steel coupons (large droplet inoculation); format: cell-based; conditions: for change in colony forming units (cfu): in as little as four hours
bacterial strains = conditions: strain not stated; cited from earlier work
Pseudomonas sp. CT07 = assay: Contact killing on treated stainless steel coupons (large droplet inoculation); format: cell-based; conditions: in as little as four hours
Salmonella enteriditis = assay: as above; format: cell-based; conditions: in as little as four hours
Klebsiella pneumonia = assay: as above; format: cell-based; conditions: in as little as four hours
Listeria monocytogenes [5] = assay: as above; format: cell-based
Pseudomonas PA01 = assay: as above; format: cell-based, Pseudomonas aeruginosa PA01; conditions: in as little as four hours
Arthrobacter [6] = assay: as above; format: cell-based; conditions: in as little as four hours
Staphylococcus aureus [7] = assay: as above; format: cell-based; conditions: in as little as four hours
S. aureus = assay: Contact killing on treated titanium coupons; format: cell-based; conditions: after three hours of drying on the titanium surface
Experimental: (§3) A one inch by inch TiO2 square was sanded with 600 grain size sand paper, followed by an ethanol (EtOH) rinse. Samples were stored in a 120° C. oven prior to use. A 10 mM solution of compound 3 in EtOH was aerosol spayed onto the TiO2 square, allowed to air dry and placed into 120° C. oven overnight to anneal the compound followed by an EtOH rinse. Spaying, annealing and rinsing were repeated two more times.
(§4) The following bacteria were tested: Pseudomonas sp. CT07, Salmonella enteriditis, Klebsiella pneumonia, Listeria monocytogenes, Arthrobacter, Staphylococcus aureus, Pseudomonas aeruginosa PA01 and Escherichia coli. The preparation of the inoculant was performed by growing overnight cultures (10^5-10^8 cfu/ml) in 10% tryptic soy broth at room temperature and with agitation. The cells were then washed from the broth by using a centrifuge at 9000×g for 2 minutes. This step was performed to remove a nutrition source for the bacteria during the test phase.
(§5) Stainless steel coupons were treated by overnight immersion in a 1% ethanolic solution (aqueous solutions may also be used) of antimicrobial phosphonate and an overnight cure at 100° C. Untreated control (“C”), compound 2 (“S1”), compound 3 (“S2”) and Bio-Protect® AM500 silicone quaternary ammonium salt (N-(3-(trimethoxy)silylpropyl)-N,N-dimethyloctadecan-1-ammonium chloride) treated (“BSC”) stainless steel coupons were then inoculated with 0.1 mL of the overnight bacterial inoculant and were then placed in a fumehood to allow the samples to dry for 2 hours. After the appropriate time lapse the coupons were then placed into a 10 mL tube of sterile 0.9% saline and vigorously vortexed for a minute to remove the adherent cells. A dilution series was made from this solution and the series was plated onto 10% tryptic soy agar plates for enumeration. This was again repeated after 4 hours, 6 hours and 24 hours of drying.
(§6) Titanium metal coupons were treated similarly as above and tested for antibacterial activity against Salmonella and S. aureus.

Salmonella = assay: Contact killing on treated titanium coupons; format: cell-based; conditions: after three hours of drying on the titanium surface
Experimental: as §3, §4, §5, §6

Arthrobacter [8] = assay: Antimicrobial surface treatment durability (retest after saline storage); format: cell-based; conditions: treated titanium coupons stored in saline for 24 hours, washed, dried, re-innoculated
Experimental: Titanium metal coupons treated with compound 2 as in Example 28 were further tested for surface treatment durability. The treated coupons were stored in saline for 24 hours from the first antimicrobial trial, removed, dried, washed with distilled H2O, dried re-innoculated with Arthrobacter and retested.

P. aeroguinosa = assay: Agar testing of treated titanium coupons; format: cell-based; conditions: titanium coupons affixed to agar petri dishes; control fully colonized
Text: The titanium coupon samples were subjected to agar testing in which the samples were affixed to agar petri dishes and inoculated with P. aeroguinosa.

| SMILES | melting point [°C] | change in colony forming units (cfu) (Pseudomonas sp. CT07) | change in colony forming units (cfu) (Salmonella enteriditis) | change in colony forming units (cfu) (Klebsiella pneumonia) | antibacterial activity compared to BSC (Listeria monocytogenes [5]) | change in colony forming units (cfu) (Pseudomonas PA01) | change in colony forming units (cfu) (Arthrobacter [6]) | change in colony forming units (cfu) (Staphylococcus aureus [7]) | change in colony forming units (cfu) (Escherichia coli [4]) | bacterial colonies (cfu) on treated titanium surface (S. aureus) | bacterial colonies (cfu) on treated titanium surface (Salmonella) | further results |
| --- | --- | --- | --- | --- | --- | --- | --- | --- | --- | --- | --- | --- |
| CCCCCCCCCCCCCCCCCC[N+](C)(C)CCCP(=O)(OC(C)C)OC(C)C.[Br-] | 54 to 55 | – | – | – | – | – | – | – | – | – | – | – |
| CCCCCCCCCCCCCCCCCC[N+](C)(C)CCC[Si](OC)(OC)OC.[Cl-] [BSC, N-(3-(trimethoxy)silylpropyl)-N,N-dimethyloctadecan-1-ammonium chloride] | – | – | – | – | – | – | – | – | – | – | – | concentration at which strain was inhibited (Staphylococcus aureus [1]; 1% stock solution in H2O, stabilized or no stabilizer): ≤ 100 µg/mL; concentration at which strain was inhibited (Escherichia coli [2]): ≤ 100 µg/mL; concentration at which strain was inhibited (Listeria monocytogenes [3]): ≤ 100 µg/mL; concentration at which strain was inhibited (Salmonella interiditis): ≤ 100 µg/mL; time to eradication compared to the four hours of S1/S2 (Escherichia coli [4]): took longer; literature MIC values (bacterial strains): 84 µg/mL |
| CCCCCCCCCCCCCCCCCC[N+](C)(C)CCCP(=O)(OCC)OCC.[Br-] [compound 2, N-(3-diethoxyphosphorylpropyl)-N,N-dimethyloctadecan-1-ammonium Bromide] | – | eradication | eradication | eradication | comparable antibacterial activity | eradication | eradication | eradication | eradication | significant reduction of bacterial colonies | significant reduction of bacterial colonies | inhibition of S. aureus (Staphylococcus aureus [1]; 1% solution, even at 100 μg/mL concentrations): highly inhibitory; change in colony forming units (cfu) (Listeria monocytogenes [5]; after 24 hours): completely eradicated; colony reductions (Arthrobacter [8]): 10^6 to 0; visible colonies around or on the samples (P. aeroguinosa): no visible colonies |
| CCCCCCCCCCCCCCCCCC[N+](C)(C)CCCP(=O)(O)O [compound 3, N-(3-phosphonopropyl)-N,N-dimethyloctadecan-1-ammonium Bromide] | 118 to 120 | eradication | eradication | eradication | comparable antibacterial activity | eradication | eradication | eradication | eradication | eradication | eradication | – |
